15 compounds from US20190343828A1, “CAMPTOTHECIN PEPTIDE CONJUGATES” (SEATTLE GENETICS, INC., priority 2018, published 2019) can be followed below.

In experiment [1] the test system is acute promyelocytic leukemia cells (HL-60). Nature of the experiment: In vitro cytotoxicity, CellTiter-Glo 96 h, HL-60. Particulars: Homo sapiens, HL-60, read-out: Cytotoxic potency (IC50 class), HL-60. For orientation: ATP-based viability assays read luminescence as a measure of living cells.
Method: (§1) In vitro potency was assessed on multiple cancer cell lines. All cell lines were authenticated by STR profiling at IDEXX Bioresearch and cultured for no more than 2 months after resuscitation. Cells cultured in log-phase growth were seeded for 24 hours in 96-well plates containing 150 μl RPMI 1640 supplemented with 20% FBS. Serial dilutions of antibody-drug conjugates in cell culture media were prepared at 4× working concentrations, and 50 μl of each dilution was added to the 96-well plates. Following addition of test articles, cells were incubated with test articles for 4 days at 37° C. After 96 hours, growth inhibition was assessed by CellTiter-Glo® (Promega, Madison, Wis.) and luminescence was measured on a plate reader.
(§2) Cell viability was determined by CellTiter-Glo staining after 96 h exposure to ADC. […] Ag1 is an antibody targeting a ubiquitous and readily internalizable antigen on cancer cells, Ag2 is cAC10 antibody targeting CD30(+) cancer cells, Ag3 is h1F6 antibody targeting CD70(+) cancer cells, Ag4 is hMEM102 antibody targeting CD48(+) cancer cells, Ag5 is h20F3 antibody targeting NTB-A expressing cancer cells, and h00 is a non-binding control antibody.
The test system of experiment [2] is Hodgkin's lymphoma cells (L540cy). Nature of the experiment: In vitro cytotoxicity, CellTiter-Glo 96 h, L540cy. To be noted: read-out: Cytotoxic potency (IC50 class), L540cy.
Method: as §1
(§3) Cell viability was determined by CellTiter-Glo staining after 96 h exposure to ADC.
The subject of experiment [3] is multiple myeloma cells (MM.1R). Nature of the experiment: In vitro cytotoxicity, CellTiter-Glo 96 h, MM.1R. Particulars: read-out: Cytotoxic potency (IC50 class), MM.1R.
Method: as §1, §2
Experiment [4] concerns melanoma cells (SK-MEL-5). Nature of the experiment: In vitro cytotoxicity, CellTiter-Glo 96 h, SK-MEL-5. To be noted: Homo sapiens, SK-MEL-5, read-out: Cytotoxic potency as free drug, IC50, SK-MEL-5.
Method: as §1, §2
Experiment [5] relates to pancreatic cancer cells (BxPC3). Nature of the experiment: In vitro cytotoxicity, CellTiter-Glo 96 h, BxPC3. To be noted: Homo sapiens, BXPC-3, read-out: Cytotoxic potency (IC50 class), BxPC3.
Method: as §1, §3
The test system of experiment [6] is renal carcinoma cells (786-O). Nature of the experiment: In vitro cytotoxicity, CellTiter-Glo 96 h, 786-O. To be noted: Homo sapiens, 786-0, read-out: Cytotoxic potency (IC50 class), 786-O.
Experiment [7] concerns acute myeloid leukemia cells (MOLM13). Nature of the experiment: In vitro cytotoxicity, CellTiter-Glo 96 h, MOLM13. To be noted: Homo sapiens, MOLM-13, read-out: Cytotoxic potency as free drug, IC50, MOLM13.
Experiment [8] has as its system B-lymphocyte cancer cells (SU-DHL-4). Nature of the experiment: In vitro cytotoxicity, CellTiter-Glo 96 h, SU-DHL-4. To be noted: Homo sapiens, SU-DHL-4, read-out: Cytotoxic potency as free drug, IC50, SU-DHL-4.
Method: as §1, §2
Experiment [9] concerns Burkitt's lymphoma cells (Ramos). Nature of the experiment: In vitro cytotoxicity, CellTiter-Glo 96 h, Ramos. To be noted: Homo sapiens, read-out: Cytotoxic potency as free drug, IC50, Ramos.
Method: as §1, §3
In experiment [10] the test system is B-lymphocyte cancer cells (U266). Nature of the experiment: In vitro cytotoxicity, CellTiter-Glo 96 h, U266. Particulars: Homo sapiens, U-266, read-out: Cytotoxic potency as free drug, IC50, U266.
Method: as §1, §2
Experiment [11] deals with multiple drug resistant acute promyelocytic leukemia cells (HL-60/RV). Nature of the experiment: In vitro cytotoxicity, CellTiter-Glo 96 h, HL60/RV. To be noted: Homo sapiens, HL-60, read-out: Cytotoxic potency (IC50 class), HL60/RV.
Method: as §1, §3

Consider `CC[C@@]1(O)C(=O)OCc2c1cc1n(c2=O)Cc2c-1nc1cc3c(cc1c2CNCc1ccc(N)cc1)OCO3` [Compound 5e], for which the IC50 in experiment [1] lay within 10 to 100 nM; in [2], 1 to 10 nM; in experiment [3], 1 to 10 nM; in experiment [4], 10 to 100 nM; in experiment [5] it was 10 to 100 nM; in experiment [6], 10 to 100 nM. The IC50 in experiment [7] lay within 1 to 10 nM; in experiment [8], 1 to 10 nM; in experiment [9], 1 to 10 nM; in experiment [10], 10 to 100 nM; in experiment [11], 100 to 1000 nM.

As for `CC[C@@]1(O)C(=O)OCc2c1cc1n(c2=O)Cc2c-1nc1cc3c(cc1c2CNCCCCO)OCO3` [Compound 5f], the IC50 in experiment [1] fell in the range of 10 to 100 nM; in experiment [2] it was 1 to 10 nM; in [3], 1 to 10 nM; in experiment [4], 1 to 10 nM; in [5] it was 10 to 100 nM; in experiment [6], 1 to 10 nM. The IC50 in [7] lay in the range of 1 to 10 nM; in experiment [8], 1 to 10 nM; in [9], 1 to 10 nM; in experiment [10], 1 to 10 nM; in [11], 100 to 1000 nM.

On to `CC[C@@]1(O)C(=O)OCc2c1cc1n(c2=O)Cc2c-1nc1cc3c(cc1c2CN1CCOCC1)OCO3` [Compound 5g], for which the IC50 in experiment [1], in experiment [2], in experiment [3], in [4], in experiment [5] and in [6] was 1 to 10 nM in each case. Besides, the IC50 in [7] lay in the range of 1 to 10 nM; in experiment [8], 1 to 10 nM; in experiment [9] it was 0.1 to 1 nM; in experiment [10], 1 to 10 nM; in experiment [11], 1 to 10 nM.

`CC[C@@]1(O)C(=O)OCc2c1cc1n(c2=O)Cc2c-1nc1cc3c(cc1c2CN1CCN(C)CC1)OCO3` [Compound 5h]: the IC50 in [1] lay in the range of 10 to 100 nM; in experiment [2] it was 1 to 10 nM; in experiment [3] it was 1 to 10 nM; in experiment [4], 10 to 100 nM; in experiment [5], 10 to 100 nM; in [6], 1 to 10 nM. The IC50 in experiment [7] is 1 to 10 nM; in [8], 1 to 10 nM; in [9] it was 1 to 10 nM; in [10], 10 to 100 nM; in [11], 10 to 100 nM.

`CC[C@@]1(O)C(=O)OCc2c1cc1n(c2=O)Cc2c-1nc1cc3c(cc1c2CNCC(C)C)OCO3` [Compound 5i]: the IC50 lay within 10 to 100 nM in experiment [1]; 1 to 10 nM in experiment [2]; 1 to 10 nM in [3]; 1 to 10 nM in experiment [4]; 1 to 10 nM in experiment [5]; 1 to 10 nM in experiment [6]. Moreover, the IC50 in experiment [7], in experiment [8], in experiment [9], in experiment [10] and in [11] was 1 to 10 nM in each case.

In the case of `CC[C@@]1(O)C(=O)OCc2c1cc1n(c2=O)Cc2c-1nc1cc3c(cc1c2CNCc1ccccc1)OCO3` [Compound 5j], the IC50 in experiment [1] is 10 to 100 nM; in experiment [2], 1 to 10 nM; in experiment [3], 1 to 10 nM; in experiment [4] it was 1 to 10 nM; in [5], 1 to 10 nM; in [6], 1 to 10 nM. Further, the IC50 in experiment [7], in [8], in experiment [9], in experiment [10] and in experiment [11] was 1 to 10 nM throughout.

Regarding `CCCCNCc1c2c(nc3cc4c(cc13)OCO4)-c1cc3c(c(=O)n1C2)COC(=O)[C@]3(O)CC` [Compound 5k], the IC50 in [1] is 10 to 100 nM; in experiment [2], 1 to 10 nM; in experiment [3] it was 1 to 10 nM; in [4] it was 1 to 10 nM; in experiment [5], 1 to 10 nM; in [6] it was 1 to 10 nM. The IC50 in [7], in experiment [8], in experiment [9], in experiment [10] and in [11] was 1 to 10 nM in each case.

As for `CC[C@@]1(O)C(=O)OCc2c1cc1n(c2=O)Cc2c-1nc1cc3c(cc1c2CNCc1ccc(OC)cc1)OCO3` [Compound 5l], the IC50 in [1] was in the range of 10 to 100 nM; in [2], 10 to 100 nM; in [3], 1 to 10 nM; in experiment [4], 10 to 100 nM; in experiment [5], 10 to 100 nM; in [6], 10 to 100 nM. Further, the IC50 was in the range of 1 to 10 nM in experiment [7]; 1 to 10 nM in experiment [8]; 1 to 10 nM in experiment [9]; 10 to 100 nM in experiment [10]; 10 to 100 nM in experiment [11].

With `CC[C@@]1(O)C(=O)OCc2c1cc1n(c2=O)Cc2c-1nc1cc3c(cc1c2CNCCC(c1ccccc1)c1ccccc1)OCO3` [Compound 5o], the IC50 lay in the range of 100 to 1000 nM in experiment [1]; 1 to 10 nM in [2]; 10 to 100 nM in [3]; 10 to 100 nM in experiment [4]; 10 to 100 nM in experiment [5]; 10 to 100 nM in [6]. Besides, the IC50 in experiment [7] was in the range of 10 to 100 nM; in experiment [8] it was 10 to 100 nM; in experiment [9], 1 to 10 nM; in experiment [10], 10 to 100 nM; in experiment [11], 10 to 100 nM.

Consider `CC[C@@]1(O)C(=O)OCc2c1cc1n(c2=O)Cc2c-1nc1cc3c(cc1c2CN(CCO)CCO)OCO3` [Compound 5p], for which the IC50 is 100 to 1000 nM in [1]; 10 to 100 nM in [2]; 1 to 10 nM in experiment [3]; 10 to 100 nM in [4]; 10 to 100 nM in experiment [5]; 10 to 100 nM in experiment [6]. Also, the IC50 in experiment [7] fell in the range of 10 to 100 nM; in experiment [8], 10 to 100 nM; in [9], 1 to 10 nM; in [10], 10 to 100 nM; in experiment [11] it was 100 to 1000 nM.

As for `CC[C@@]1(O)C(=O)OCc2c1cc1n(c2=O)Cc2c-1nc1cc3c(cc1c2CN(CCN)CCO)OCO3` [Compound 5q], the IC50 fell in the range of 100 to 1000 nM in experiment [1]; 10 to 100 nM in experiment [2]; 10 to 100 nM in experiment [3]; 100 to 1000 nM in experiment [4]; 100 to 1000 nM in [5]; 10 to 100 nM in experiment [6]. Further, the IC50 in [7] was in the range of 10 to 100 nM; in experiment [8], 10 to 100 nM; in [9] it was 10 to 100 nM; in experiment [10], 10 to 100 nM; in experiment [11], 100 to 1000 nM.

`CC[C@@]1(O)C(=O)OCc2c1cc1n(c2=O)Cc2c-1nc1cc3c(cc1c2CNc1ccc(F)cc1)OCO3` [Compound 5r]: the IC50 in [1] lay within 10 to 100 nM; in experiment [2], 1 to 10 nM; in [3] it was 1 to 10 nM; in experiment [4], 1 to 10 nM; in experiment [5], 1 to 10 nM; in experiment [6] it was 1 to 10 nM. Moreover, the IC50 lay in the range of 10 to 100 nM in experiment [7]; 1 to 10 nM in experiment [8]; 1 to 10 nM in experiment [9]; 1 to 10 nM in experiment [10]; 10 to 100 nM in experiment [11].

As to `CC[C@@]1(O)C(=O)OCc2c1cc1n(c2=O)Cc2c-1nc1cc3c(cc1c2CNC12CC4CC(CC(C4)C1)C2)OCO3` [Compound 5s], the IC50 lay within 100 to 1000 nM in [1]; 10 to 100 nM in experiment [2]; 10 to 100 nM in experiment [3]; 10 to 100 nM in [4]; 10 to 100 nM in experiment [5]; 10 to 100 nM in experiment [6]. The IC50 in experiment [7], in experiment [8], in experiment [9], in experiment [10] and in [11] was 10 to 100 nM each time.

Take `CC[C@@]1(O)C(=O)OCc2c1cc1n(c2=O)Cc2c-1nc1cc3c(cc1c2CN(C)CCN(C)C)OCO3` [Compound 5t]: the IC50 in experiment [1] was in the range of 100 to 1000 nM; in [2] it was 1 to 10 nM; in [3] it was 1 to 10 nM; in experiment [4] it was 10 to 100 nM; in [5], 10 to 100 nM; in experiment [6], 1 to 10 nM. Also, the IC50 in experiment [7] lay within 10 to 100 nM; in experiment [8] it was 1 to 10 nM; in experiment [9] it was 1 to 10 nM; in experiment [10] it was 10 to 100 nM; in experiment [11], 10 to 100 nM.

With `CC[C@@]1(O)C(=O)OCc2c1cc1n(c2=O)Cc2c-1nc1cc3c(cc1c2CNCC1CCNCC1)OCO3` [Compound 5u], the IC50 in experiment [1] is 100 to 1000 nM; in experiment [2], 10 to 100 nM; in experiment [3], 10 to 100 nM; in experiment [4], 10 to 100 nM; in [5] it was 10 to 100 nM; in experiment [6] it was 10 to 100 nM. The IC50 in experiment [7] lay in the range of 10 to 100 nM; in [8] it was 10 to 100 nM; in experiment [9], 1 to 10 nM; in experiment [10], 10 to 100 nM; in [11], 100 to 1000 nM.
